Results reported in patent US20110218229A1, “SIRT1 Modulation of Adipogenesis and Adipose Function” (priority 2003, published 2011).

Assays:
[1] = test system: primary rat white adipocytes; assay: FFA release triggered by adrenalin in primary white adipocytes; assay type: cell-based; conditions: with adrenalin
Description: To determine whether Sirt1 stimulates fat mobilization in bona fide adipocytes, we cultured primary rat white adipocytes and activated fat mobilization with the known β-adrenergic inducer adrenalin. […] In a converse experiment using these rat adipocytes, we addressed whether inhibition of Sirt1 would blunt the mobilization of fat by adrenalin. Addition of the known Sirt1 inhibitor nicotinamide 16 indeed reduced the release of FFA triggered by adrenalin. The above findings indicate that Sirt1 not only represses the differentiation program of adipocytes, but also activates the mobilization of fat in fully differentiated cells.
Cell culture, retroviral infection and transfection. 3T3-L1, HEK293, 293T and Phoenix cells (ATCC, Rockville, Md.) were cultured in Dulbecco's modified Eagle's medium with 10% FCS, and antibiotics. Primary adipocytes from Sprague-Dawley rats were prepared as described previously 25. Transfections for luciferase assays were done as described using pSPORT6-PPAR-γ2, pGL3-PPRE26 and pcDNA3-Sirt1. Data were corrected for transfection efficiency.

[2] = test system: 3T3-L1 adipocytes; assay: Triglyceride content in fully differentiated 3T3-L1 cells; assay type: cell-based, mouse; conditions: control cells
Method: (§1) We fully differentiated 3T3-L1 cells and subsequently (12 days after induction) applied the Sirt1 activator resveratrol over a wide range of concentrations. […] To validate further these visual results, we measured triglyceride content and free fatty acid (FFA) release in these cells.
(§2) To stimulate adipogenesis and accumulation of lipids in cells, medium was supplemented to confluent cells (day 0) with 2 μM insulin or 10^−7M rosiglitazone (Alexis Biochemicals), as stated in the text, 1 μM dexamethasone, and 0.25 mM isobuthylmethylxanthine (IBMX) for 2 days. The cells were then incubated with insulin or 10^-7 M rosiglitazone, changing the medium every second day. Fat accumulation was visualized by staining of lipids with Oil red O. Intracellular triglyceride levels were measured in cell lysates by an enzymatic method using a reagent kit from Boehringer Mannheim.

[3] = test system: UCP1; assay: UCP1 expression in BAT cells; assay type: cell-based
Description: Further observations were made. A mouse genetically deficient for SIRT1 activity cannot regulate body temperature in the cold. The mouse appears unable to induce the UCP1 gene or related transcriptional programs. We used chromatin immunoprecipitations to characterize genes which may include regulatory sequences that are directly or indirectly bound by SIRT1. We discovered that, at least in brown fat cells, the UCP1 promoter is bound by SIRT1. SIRT1 responds to stress and activates UCP1 transcription. At least in part, the transcriptional activation is a result of the PGC1 co-factor, which is present in BAT cells, but absent in WAT cells, PGC1 modifies SIRT1 from a repressor to an activator. PGC1, SIRT1, and PPARγ are able to form a ternary complex which functions as a transcriptional activator. SIRT1 may have a similar function in other cells that express PGC1, e.g., muscle and liver cells. Moreover, resveratrol increases UCP1 expression in BAT cells.

[4] = test system: 3T3-L1 adipocytes; assay: Fat content by staining in fully differentiated 3T3-L1 cells; assay type: cell-based, mouse
Method: as §1, §2

[5] = test system: 3T3-L1 adipocytes; assay: Free fatty acid (FFA) release in fully differentiated 3T3-L1 cells; assay type: cell-based, mouse
Method: as §1
Wild-type FVB male age-matched (12-16 weeks old) mice were used for the present studies. Sirt1+/+ and Sirt1+/− genotypes have been described previously 21. All mice were housed under controlled temperature (25±1° C.) and lighting conditions. Food provided was normal chow. All mice were cared for in accordance with the MIT animal care committee. Blood was collected from the retro-orbital sinus and kept on ice until centrifugation (1,500 g, 15 min at 4° C.), and the plasma was stored at −20° C. until analysis. All animals were killed by decapitation. WAT depots were collected, weighed and quickly frozen in liquid nitrogen and stored at −70° C. until further processing by immunoblotting. Non-esterified free fatty acids were determined by enzymatic assays (Wako Pure Chemical Industries).

[6] = test system: 3T3-L1 fibroblasts; assay: 3T3-L1 adipogenesis / differentiation (Oil Red O staining); assay type: cell-based, mouse
Method: The 3T3-L1 mouse fibroblasts used in this example, and in Examples 4-10 hereinafter, were prepared in accordance with standard protocol as follows. 3T3-L1 cells (ATCC CL-173, Rockville, Md.) were grown to confluence (day 0) in medium A (Dulbecco's modified Eagle's Medium with 10% fetal calf serum, 100 units/ml penicillin, and 100 μg/ml streptomycin). Confluent cell were incubated in medium A containing 2 μM insulin, 1 μM dexamethasone, and 0.25 mM isobuthyl methyl xanthine for two days. Thereafter, confluent fibroblasts were treated with insulin for five days and at the end of such treatment were in a condition for functional study. Adipogenesis was evaluated by analysis of the expression of adipocyte-specific markers and by staining of lipids with Oil Red O (Chawla & Lazar, 1994, Proc. Natl. Acad. Sci. USA 91, 1786-1790).
(§3) 3T3-L1 fibroblasts were transformed through standard techniques with either a pBABE control vector (“control fibroblasts”) or a vector comprising pBABE-mSIRT1 cDNA (“mSIRT1 cDNA fibroblasts”). Western Blot analyses of SIRT1 expression by the control and mSIRT1 cDNA fibroblasts were performed using antibodies and actin control as in Example 1.
(§4) 3T3-L1 fibroblasts were transformed with either a pSUPER control vector (“control fibroblasts”), a vector comprising pSUPER-mSIRT1 RNAi WT (SEQ ID NO: 24) (“mSIRT1 RNAi WT fibroblasts”), or pSUPER-mSIRT1 RNAiMUT (SEQ ID NO: 25), (“mSIRT1 RNAiMUT fibroblasts”). Western Blot analyses of SIRT1 expression by the control, mSIRT1 RNAi WT, and mSIRT1 RNAiMUT fibroblasts were performed using antibodies and actin controls as in Example 1.
as §2, with “The cells were then incubated with insulin or 10^-7 M rosiglitazone, changing the medium every second day.” left out

[7] = test system: 3T3-L1 fibroblasts; assay: Intracellular triglyceride levels in transformed 3T3-L1; assay type: cell-based, mouse; conditions: day 7, Folch extraction, six wells per condition
Method: Fibroblast intracellular trigylceride (“TG”) levels should decrease upon inhibition of fibroblast differentiation resulting from overexpression of SIRT1. Consistent with Examples 4 and 5, it should be possible to measure in a quantitative manner the amount of intracellular triglycerides that can be observed by Oil Red O staining. To do so, 3T3-L1 fibroblasts were prepared as in Example 3 and transformed as in Examples 4 and 5 with either pBABE control vector (“pBABE control fibroblasts”), pBABE-mSIRT1 cDNA (“mSIRT1 cDNA fibroblasts”), pSUPER control vector (“pSUPER control fibroblasts”), or pSUPER-mSIRT1 RNAi WT (SEQ ID NO: 24) (“mSIRT1 RNAi WT fibroblasts”).
At day 7, the cells were lysed in methanol and neutral lipids were extracted by the Folch method and resuspended in isopropanol. Triglyceride levels were measured by calorimetric methods using a commercial kit (Trig/GB #450032, Roche Diagnostics, Indianapolis, Ind.). Six wells per condition were analyzed.

[8] = test system: 3T3-L1 cells; assay: Mitotic divisions after induction (BrdU incorporation) in 3T3-L1; assay type: cell-based, mouse
Description: We evaluated whether the mammalian Sir2 orthologue, Sirt1, senses nutrient availability in WAT and mediates corresponding effects on fat accumulation. To probe whether Sirt1 may actually modulate adipogenesis, we used mouse 3T3-L1 fibroblasts as an in vitro model. Adipogenesis in these cells is promoted by the nuclear receptor PPAR-γ. Upon induction of adipogenesis by insulin, dexamethasone and isobutylmethylxanthine, we observed that Sirt1, protein levels increased and peaked at day 5 after hormonal stimulation. […] 3T3-L1 cells undergo one or two mitotic divisions after induction as a prelude to terminal differentiation.

[9] = test system: SIRT1; assay: SIRT1 expression in transformed 3T3-L1 fibroblasts (Western Blot); assay type: cell-based, mouse; conditions: for SIRT1 expression level versus control fibroblasts: Western Blot, actin control
Method: Samples of inguinal, epididymal, and retroperitoneal WAT were taken from the mice and subjected to Western Blot analyses using actin as a control to determine if SIRT1 was expressed in each of the three samples. Protein samples were prepared from WAT adipocytes by lysis in RIPA buffer supplemented with protease inhibitors. Twenty micrograms of protein were resolved in 9% SDS-PAGE and transferred to nitrocellulose membranes. SIRT1 protein was probed with mSIRT1 antibody (Upstate Inc.) and detected by ECL (Amersham). An actin antibody (Santa Cruz) was used in the Western Blot as a control. Pronounced SIRT1 expression levels were detected in each of the three WAT samples.
as §3, §4
Retroviral infection was performed as described in Tontonoz et al. (1994) Cell 79:1147. Phoenix cells were transfected with either pBABE, pBABE-Sirt1, pSUPERretro (Oligoengine), pSUPERretro-Sirt1 RNAi (5′-GATGAAGTTGACCTCCTCA-3′, SEQ ID NO:24) or pSUPER-NCoR RNAi (5′-GCTGCATCCAAGGGCCATG-3′, SEQ ID NO:25) using Lipofectamine (Invitrogen). After 48 h of transfection, the medium containing retroviruses was collected, filtered, treated by polybrene (1 μg ml^−1) and transferred to 3T3-L1 target cells. Infected cells were selected with puromycin (2.5 μg ml^−1) for 7 days.

[10] = test system: 3T3-L1 fibroblasts; assay: Isoproterenol-induced lipolysis in 3T3-L1 (fatty acid concentration); assay type: cell-based, mouse; conditions: day 7, isoproterenol (10^−5M), four hours; controls 0.627 mM (pBABE) and 0.508 mM (pSUPER)
Method: The amount of fat generated by adipocyte lipolysis should be proportional to the fat content of the adipocyte. In the experiment of this example, four samples of 3T3-L1 fibroblasts were prepared essentially as in Example 3 (except for the change in protocol noted below), and transformed as in Examples 4 and 5 with either pBABE control vector (“pBABE control fibroblasts”), pBABE-mSIRT1 cDNA (“mSIRT1 cDNA fibroblasts”), pSUPER control vector (“pSUPER control fibroblasts”), or pSUPER-mSIRT1 RNAi WT (SEQ ID NO: 24) (“mSIRT1 RNAi WT fibroblasts”).
Fatty acid concentrations in each of the four samples were measured four hours later and the results of these measurements are shown in FIG. 1. Six wells were used for each of the four samples. Results from the different wells were averaged.

[11] = test system: C/EBPβ, C/EBPδ, C/EBPα, PPARγ, aP2; assay: Adipogenesis transcription factor levels in 3T3-L1 (Western Blot, semi-quantitative RT-PCR); assay type: cell-based, mouse
Method: 3T3-L1 fibroblasts were transformed through standard techniques with either a pBABE control vector (“control fibroblasts”) or a vector comprising pBABE-mSIRT1 cDNA (“mSIRT1 cDNA fibroblasts”) in accordance with Example 4. Protein and total RNA was extracted from the differentiated cells. Western Blot analyses of levels of the PPARγ and C/EBPα transcription factors present in the protein extracts from the control and mSIRT1 cDNA fibroblasts were performed using antibodies and actin control as in Example 1.
Semi-quantitative RT-PCR analysis was also conducted to determine levels of the C/EBPβ, C/EBPδ, C/EBPα, PPARγ transcription factors and aP2 (PPARγ target gene) present in the protein and total RNA extracted from the control and mSIRT1 cDNA fibroblasts. In this analysis, GAPDH was used as an internal control for cDNA input in the PCR.
3T3-L1 fibroblasts were transformed through standard techniques with either a pSUPER control vector (“control fibroblasts”) or a vector comprising pSUPER-mSIRT1 RNAiWT ([…]) (“mSIRT1 RNAiWT fibroblasts”) in accordance with Example 5. Protein and total RNA was extracted from the differentiated cells. […]
Semi-quantitative RT-PCR analysis was also conducted to determine levels of the C/EBPβ, C/EBPδ, C/EBPα, PPARγ, and aP2 (PPARγ target gene) present in the protein and total RNA extracted from the control and mSIRT1RNAiWT fibroblasts. […]

NC(=O)c1cccnc1 [nicotinamide]
release of FFA triggered by adrenalin [1]: reduced

Oc1ccc(/C=C/c2cc(O)cc(O)c2)cc1 [resveratrol, 3,5,4′-trihydroxy-tans-stilbene]
triglyceride content [2]: reduced
release of FFA triggered by adrenalin [1]: greatly stimulated
UCP1 expression [3]: increases
fat content after staining ([4]; cells in which Sirt1 levels were knocked down): no drug-mediated fat reduction
fat content after staining ([4]; fully differentiated 3T3-L1 cells, 12 days after induction, 50 and 100 μM resveratrol): strong reduction in fat
release of FFA ([5]; Sirt1 knockdown cells): but not in the Sirt1 knockdown cells
release of FFA ([5]; control cells): stimulated

NCoR RNAi: pSUPER-NCoR RNAi virus, 5′-GCTGCATCCAAGGGCCATG-3′
reduction of fat accretion by Sirt1 overexpression ([6]; Sirt1-overexpressing 3T3-L1 fibroblasts infected with NCoR RNAi virus): largely prevented

mSIRT1 RNAi WT: pSUPER vector with RNAi sequence 5′-GATGAAGTTGACCTCCTCA-3′ (SEQ ID NO: 24), interferes with SIRT1 expression
TG levels versus respective control [7]: higher
mitotic divisions after induction [8]: occurred normally
change of Sirt1 gene expression ([9]; retroviral infection of 3T3-L1 cells): downregulation (sevenfold)
lipolysis level (fatty acid concentration) [10]: 0.727 mM
PPARγ levels versus control fibroblasts ([11]; Western Blot of extracts from differentiated cells): Higher levels of PPARγ
levels of C/EBPβ, C/EBPδ, C/EBPα, PPARγ and aP2 ([11]; semi-quantitative RT-PCR, GAPDH internal control): increased levels of all of the assayed transcription factors except C/EBPβ
fat / triglyceride accumulation versus control vector ([6]; Oil red O staining after 7 days of differentiation or intracellular triglyceride content): significant increase in triglyceride accumulation
differentiation by Oil Red O staining versus control fibroblasts ([6]; transformed 3T3-L1 fibroblasts): marked increase in differentiation

mSIRT1 RNAiMUT: mutation of mSIRT1 RNAiWT, 5′-GATGAAGTCGACCTCCTCA-3′ (SEQ ID NO: 25) (expressed or natural sequence)
SIRT1 expression level versus control fibroblasts [9]: comparable with those of the control fibroblasts
SIRT1 expression level versus control fibroblasts ([9]; listed as SIRT1 mRNAi-mut): no effect on SIRT1 expression
